From patent US20220195384A1, “COMPOSITION FOR PROMOTING PRODUCTION OF STEM CELL-DERIVED EXOSOMES AND INCREASING STEMNESS” (BREXOGEN INC., priority 2019, published 2022)

Legend:
Format in all cases: cell-based
[1] = tested on: primary umbilical cord-derived mesenchymal stem cells; test: Content of exosomal protein (Bradford analysis, 595 nm); details: for Exosomal protein, yield per 10^6 cells: then 72 h exosome-free FBS medium, non-treated 2.0
Method: (§1) In a culture medium [high glucose DMEM (Gibco, Cat no. 11995-065); 10% fetal bovine serum (HyClone), 1% MEM non-essential amino acids solution (100×) (Gibco, Cat no. 11140-050)] containing 20 nM of exendin-4, primary umbilical cord-derived mesenchymal stem cells (ATCC No. PCS-500-010; Lot No. 63822428) were cultured for one week.
(§2) After completion of culturing, the mesenchymal stem cells pretreated with exendin-4 were washed and additionally cultured for 72 hours in a culture medium supplemented with 10% fetal bovine serum (FBS) free of exosomes. The reason of employing exosome-free FBS was to prevent FBS-derived exosomes other than those secreted from the cells from being incorporated because generally used FBS contained a large amount of exosomes derived from bovine serum.
(§3) After 72 hours of culturing, the culture medium in which the pretreated mesenchymal stem cells were cultured was taken and centrifuged at 300×g for 10 min to remove residual cells and cell debris. The supernatant was filtered through a 0.22 μm filter, followed by centrifugation at 10,000×g and 4° C. for 70 min in a high-speed centrifuge. The supernatant thus obtained was subjected again to ultracentrifugation at 100,000×g and 4° C. for 90 min. The exosomes obtained as a pellet were diluted in PBS (phosphate buffered saline) before use in the following experiments.
as §1, with “10” for “20”, “PMA,” for “exendin-4,”
as §2, with “PMA” for “exendin-4”
as §1, with “10 ng/mL interferon-γ,” for “20 nM of exendin-4,”
as §2, with “interferon-γ” for “exendin-4”
as §1, with “10 μM” for “20 nM”, “tetrandrine,” for “exendin-4,”
as §2, with “tetrandrine” for “exendin-4”, “serum. […]” for “serum.”

[2] = tested on: primary umbilical cord-derived mesenchymal stem cells; test: Stem cell stemness: colony formation (CFU-F, crystal violet) after pretreatment; details: for colonies formed (each 50 or more cells): 1,000 cells/dish, 21 days; for CFU-F increase: vs non-treated
Method: as §1
as §1, with “10” for “20”, “PMA,” for “exendin-4,”
as §1, with “10 ng/mL interferon-γ,” for “20 nM of exendin-4,”
as §1, with “10 μM” for “20 nM”, “tetrandrine,” for “exendin-4,”
as §1, with “10 μg/mL hyaluronic acid,” for “20 nM of exendin-4,”
as §1, with “30” for “20”, “substance P,” for “exendin-4,”
as §1, with “10” for “20”, “resveratrol,” for “exendin-4,”
as §1, with “10 μM” for “20 nM”, “lanifibranor,” for “exendin-4,”
Mesenchymal stem cells and the exendin-4-pretreated mesenchymal stem cells of the Example were each seeded at a density of 1,000 cells/dish into 100-mm cell culture dishes containing […] of a culture medium [high glucose DMEM (Gibco, Cat no. 11995-065), 10% fetal bovine serum (HyClone), 1% MEM non-essential amino acids solution (100×) (Gibco, Cat no. 11140-050)] per dish and cultured for 21 days. The cell-attached dishes were washed twice with PBS, followed by fixation with 95% methanol at room temperature for about 2 min. The fixed cells were washed three times with PBS and stained with 0.5% crystal violet [(sigma, C-3886, USA) […], methanol 100 ml] for 5 min. After water washing and drying at room temperature, colonies, each composed of 50 or more cells, were counted for comparison.
Mesenchymal stem cells and the PMA-pretreated mesenchymal stem cells of the Example were each seeded at a density of 1,000 cells/dish into 100-mm cell culture dishes containing […] of a culture medium [high glucose DMEM (Gibco, Cat no. 11995-065), 10% fetal bovine serum (HyClone), 1% MEM non-essential amino acids solution (100×) (Gibco, Cat no. 11140-050)] per dish and cultured for 21 days. The cell-attached dishes were washed twice with PBS, followed by fixation with 95% methanol at room temperature for about 2 min. […]

[3] = tested on: primary umbilical cord-derived mesenchymal stem cells; test: Stem cell proliferation (CCK, absorbance 450 nm) after pretreatment; details: 24 h culture, CCK 4 h
Method: as §1
as §1, with “10” for “20”, “PMA,” for “exendin-4,”
as §1, with “10 ng/mL interferon-γ,” for “20 nM of exendin-4,”
as §1, with “10 μM” for “20 nM”, “tetrandrine,” for “exendin-4,”
as §1, with “10 μg/mL hyaluronic acid,” for “20 nM of exendin-4,”
as §1, with “30” for “20”, “substance P,” for “exendin-4,”
as §1, with “10” for “20”, “resveratrol,” for “exendin-4,”
as §1, with “10 μM” for “20 nM”, “lanifibranor,” for “exendin-4,”
(§4) Mesenchymal stem cells and the exendin-4-pretreated mesenchymal stem cells of the Example were each seeded at a density of 3,000 cells/well into 96-well plates containing 100 μL of a culture medium [high glucose DMEM (Gibco, Cat no. 11995-065), 10% fetal bovine serum (HyClone), 1% MEM non-essential amino acids solution (100×) (Gibco, Cat no. 11140-050)] per well and cultured for 24 hours in a CO2 incubator. Then, CCK solution (10 μL/well) was added, and incubation was continued for 4 hours in the CO2 incubator, followed by reading absorbance at a wavelength of 450 nm (420-480 nm) to determine proliferation.
as §4, with “PMA-pretreated” for “exendin-4-pretreated”, “proliferation. […]” for “proliferation.”

[4] = tested on: primary umbilical cord-derived mesenchymal stem cells; test: Number of exosomes by nanoparticle tracking assay (NanoSight NS300); details: for No. of exosome particles, yield per 10^6 cells: then 72 h exosome-free FBS medium
Method: as §1, §2, §3
as §1, with “10” for “20”, “PMA,” for “exendin-4,”
as §2, with “PMA” for “exendin-4”
as §1, with “10 ng/mL interferon-γ,” for “20 nM of exendin-4,”
as §2, with “interferon-γ” for “exendin-4”
as §1, with “10 μM” for “20 nM”, “tetrandrine,” for “exendin-4,”
as §2, with “tetrandrine” for “exendin-4”, “serum. […]” for “serum.”

[5] = tested on: primary umbilical cord-derived mesenchymal stem cells; test: Content of exosomal RNA (NanoDrop); details: for Exosomal RNA, yield per 10^6 cells: then 72 h exosome-free FBS medium
Method: as §1, §2, §3
as §1, with “10” for “20”, “PMA,” for “exendin-4,”
as §2, with “PMA” for “exendin-4”
as §1, with “10 ng/mL interferon-γ,” for “20 nM of exendin-4,”
as §2, with “interferon-γ” for “exendin-4”
as §1, with “10 μM” for “20 nM”, “tetrandrine,” for “exendin-4,”
as §2, with “tetrandrine” for “exendin-4”, “serum. […]” for “serum.”

[6] = 10 nM PMA pretreatment one week
[7] = 10 μM lanifibranor pretreatment one week
[8] = 10 nM resveratrol pretreatment one week
[9] = 10 μM tetrandrine pretreatment one week

Q: How did the “fold greater exosomal proteins than non-treated mesenchymal stem cells” value [1, 6] turn out when `CCCCCCCCCCCCCC(=O)O[C@@H]1[C@@H](C)[C@@]2(O)[C@@H](C=C(CO)C[C@]3(O)C(=O)C(C)=C[C@@H]23)[C@@H]2C(C)(C)[C@]12OC(C)=O` [PMA, phorbol 12-myristate 13-acetate] was run?
A: about 5 fold

Q: And the “Exosomal protein, yield per 10^6 cells” value [1, 6]?
A: 10.0 ug

Q: And the “colonies formed (each 50 or more cells)” value ([2]; 10 nM PMA pretreatment one week, non-treated 28.6)?
A: 285.7 colonies

Q: What about the CFU-F increase [2, 6] of the same compound?
A: about 996.5%

Q: What about the “increase in proliferation relative to non-treated mesenchymal stem cells” value [3, 6] of the same compound?
A: about 220%

Q: What about the “proliferation ratio relative to non-treated mesenchymal stem cells (1)” value [3, 6] of the same compound?
A: 2.2

Q: And the “fold more exosomes than non-treated mesenchymal stem cells” value [4, 6]?
A: about 5.2 fold

Q: And the “No. of exosome particles, yield per 10^6 cells” value ([4]; 10 nM PMA pretreatment one week, non-treated 2.3)?
A: 11.90 10^9

Q: And the “fold greater exosomal RNA than non-treated mesenchymal stem cells” value [5, 6]?
A: about 4 fold

Q: What about the “Exosomal RNA, yield per 10^6 cells” value ([5]; 10 nM PMA pretreatment one week, non-treated 31.0) of the same compound?
A: 125.0 ng

Q: Which “fold greater exosomal proteins than non-treated mesenchymal stem cells” value [1, 7] does the source give for `O=C(O)CCCc1cc2cc(Cl)ccc2n1S(=O)(=O)c1ccc2ncsc2c1` [lanifibranor] here?
A: about 4.6 fold

Q: And the “Exosomal protein, yield per 10^6 cells” value [1, 7]?
A: 9.2 ug

Q: What about the “colonies formed (each 50 or more cells)” value ([2]; 10 μM lanifibranor pretreatment one week, non-treated 40) of the same compound?
A: 56.7 colonies

Q: What about the CFU-F increase [2, 7] of the same compound?
A: about 142%

Q: And the “increase in proliferation relative to non-treated mesenchymal stem cells” value [3, 7]?
A: about 181%

Q: What about the “proliferation ratio relative to non-treated mesenchymal stem cells (1)” value [3, 7] of the same compound?
A: 1.81

Q: And the “fold more exosomes than non-treated mesenchymal stem cells” value [4, 7]?
A: about 4.95 fold

Q: What about the “No. of exosome particles, yield per 10^6 cells” value ([4]; 10 μM lanifibranor pretreatment one week, non-treated 2.30) of the same compound?
A: 11.4 10^9

Q: And the “fold greater exosomal RNA than non-treated mesenchymal stem cells” value [5, 7]?
A: about 4.1 fold

Q: What about the “Exosomal RNA, yield per 10^6 cells” value ([5]; 10 μM lanifibranor pretreatment one week, non-treated 27.00) of the same compound?
A: 110.34 ng

Q: How did the “fold greater exosomal proteins than non-treated mesenchymal stem cells” value [1, 8] turn out when `Oc1ccc(C=Cc2cc(O)cc(O)c2)cc1` [resveratrol] was run?
A: about 5.4 fold

Q: What about the “Exosomal protein, yield per 10^6 cells” value [1, 8] of the same compound?
A: 10.78 ug

Q: What about the “colonies formed (each 50 or more cells)” value ([2]; 10 nM resveratrol pretreatment one week, non-treated 28.6) of the same compound?
A: 311 colonies

Q: What about the CFU-F increase [2, 8] of the same compound?
A: about 1,087%

Q: And the “increase in proliferation relative to non-treated mesenchymal stem cells” value [3, 8]?
A: about 322%

Q: What about the “proliferation ratio relative to non-treated mesenchymal stem cells (1)” value [3, 8] of the same compound?
A: 3.22

Q: What about the “fold more exosomes than non-treated mesenchymal stem cells” value [4, 8] of the same compound?
A: about 5.2 fold

Q: What about the “No. of exosome particles, yield per 10^6 cells” value ([4]; 10 nM resveratrol pretreatment one week, non-treated 2.3) of the same compound?
A: 11.9 10^9

Q: What about the “fold greater exosomal RNA than non-treated mesenchymal stem cells” value [5, 8] of the same compound?
A: about 4.7 fold

Q: And the “Exosomal RNA, yield per 10^6 cells” value ([5]; 10 nM resveratrol pretreatment one week, non-treated 31.0)?
A: 145.15 ng

Q: What does the source list for `COc1ccc2cc1Oc1ccc(cc1)C[C@H]1c3cc(c(OC)cc3CCN1C)Oc1c(OC)c(OC)cc3c1[C@H](C2)N(C)CC3` [tetrandrine]?
A: fold greater exosomal proteins than non-treated mesenchymal stem cells [1, 9]: about 4.5 fold; Exosomal protein, yield per 10^6 cells [1, 9]: 9.42 ug; colonies formed (each 50 or more cells) ([2]; 10 μM tetrandrine pretreatment one week, non-treated 28.7): 121.3 colonies; CFU-F increase [2, 9]: about 423%; increase in proliferation relative to non-treated mesenchymal stem cells [3, 9]: about 260%; proliferation ratio relative to non-treated mesenchymal stem cells (1) [3, 9]: 2.6; fold more exosomes than non-treated mesenchymal stem cells [4, 9]: about 4.3 fold; No. of exosome particles, yield per 10^6 cells ([4]; 10 μM tetrandrine pretreatment one week, non-treated 2.3): 9.84 10^9; fold greater exosomal RNA than non-treated mesenchymal stem cells [5, 9]: about 4.4 fold; Exosomal RNA, yield per 10^6 cells ([5]; 10 μM tetrandrine pretreatment one week, non-treated 31.0): 136.0 ng
